The results in this text go back to patent US20240208945A1, “6-CARBAMATE SUBSTITUTED HETEROARYL RING DERIVATIVES” (MEDSHINE DISCOVERY INC., priority 2021, published 2024).

Where a name gives a salt, the structure may show the parent alone.

In series [1] the target is binding of KRAS(G12C) to SOS1 (Homo sapiens (Human), UniProt Q07889). The series is described as follows: KRAS(G12C) and SOS1 binding assay (HTRF). The settings on record: 25° C., 60 minutes. An excerpt: The small molecular compound binds to the catalytic site of SOS1, thus inhibiting the binding of SOS1 to KRAS (G12C). When the binding of fluorescently labeled SOS1 protein to fluorescently labeled KRAS (G12C) protein is inhibited, the emitted fluorescence changes. The ability of small molecules to prevent the binding of SOS1 to KRAS (G12C) can be tested by detecting changes in fluorescence. A homogeneous time-resolved fluorescence (HTRF) binding assay was used to detect the ability of the compounds of the present disclosure to inhibit the binding of SOS1 to KRAS (G12C).
KRAS (G12C) protein was expressed and purified by Wuhan AtaGenix Biotechnology Co., Ltd., SOS1 exchange domin (564-1049) protein (Human recombinant) was purchased from Cytoskeleton, Mab Anti 6HIS-XL665 and Mab Anti GST-Eu cryptate were purchased from Cisbio. Multimode microplate reader Nivo5 was purchased from PerkinElmer.
1× buffer preparation (ready-to-use): Hepes: 5 mM; NaCl: 150 mM; EDTA: 10 mM; Igepal: 0.0025%; KF: 100 mM; DTT: 1 mM; BSA: […];
The test compounds were 5-fold diluted with DMSO using a multi-channel pipette to the 8th concentration, i.e., diluted from 1 mM to 0.064 μM.
The test compound was diluted by gradient with 1× buffer to a working solution with 2% DMSO. 5 μL/well of the working solution was added to corresponding wells, and the corresponding concentration gradient was 20 μM to […]. Duplicate experiment was set. The working solution was centrifuged at 1000 rpm for 1 minute.
A mixed working solution of KRAS(G12C) (200 nM) and Mab Anti GST-Eu cryptate (1 ng/μL) was prepared with 1× buffer, and the mixed working solution was incubated at 25° C. for 5 minutes, and 2.5 μL/well of the mixed working solution was added to the corresponding wells.
A mixed working solution of SOS1 (80 nM) and Mab Anti 6HIS-XL665 ([…]) was prepared with 1× buffer, and 2.5 μL/well of the mixed working solution was added to the corresponding wells. 2.5 μL of Mab Anti 6HIS-XL665 ([…]) diluent was added to blank wells. At this time, the final concentration gradient of the compound was diluted from 10 μM to 0.64 nM, KRAS(G12C) ([…]), MAb Anti GST-Eu cryptate (0.25 ng/μL), SOS1 (20 nM), Mab Anti 6HIS-XL665 (2 g/μL), the reaction system was placed at 25° C. for 60 minutes. After the reaction was completed, the multimode microplate reader was used to read HTRF.
Using the equation (Sample−Min)/(Max−Min)×100% to convert the raw data into inhibition rate, the IC50 value might be obtained by curve fitting with four parameters (obtained by “log (inhibitor) vs. response—Variable slope” mode in GraphPad Prism).

For the next series, the system named is p-ERK in DLD-1 cells. As to the kind of experiment: p-ERK inhibitory activity test in DLD-1 cells (HTRF Phospho-ERK1/2 kit). In kind it is cell-based. The settings on record: Homo sapiens, 1 hour incubation. As to the method: DLD-1 cells were purchased from Nanjing Cobioer; 1640 medium was purchased from Biological Industries; fetal bovine serum was purchased from Biosera; Advanced Phospho-ERK1/2 (THR202/TYR204) KIT was purchased from Cisbio.
DLD-1 cells were seeded in a transparent 96-well cell culture plate, with 80 μL of cell suspension per well and 8000 DLD-1 cells per well. The cell plate was incubated in a carbon dioxide incubator at 37° C. overnight; • the test compound was diluted to 2 mM with 100% DMSO as the first concentration, and then 5-fold diluted to the 8th concentration with a pipette, that is, diluted from 2 mM to 0.026 μM. 2 μL of compound was added to 78 μL of cell starvation medium. After mixing well, 20 μL of compound solution was taken and added to the corresponding cell plate wells, and the cell plate was put back to the carbon dioxide incubator to continue to incubate for 1 hour; at this time, the concentration of the compound was from 10 μM to 0.128 nM, and the concentration of DMSO was 0.5%; • after the incubation was completed, the cell supernatant was discarded, and 50 μL of cell lysate was added to each well, and incubated at room temperature for 30 minutes with shaking; • Phospho-ERK1/2 Eu Cryptate antibody and Phospho-ERK1/2 d2 antibody were 20-fold diluted using Detection buffer; • 16 μL of cell lysate supernatant per well was put into a new 384 white microplate, then 2 μL of Phospho-ERK1/2 Eu Cryptate antibody diluent and 2 μL of Phospho-ERK1/2 d2 antibody diluent were added thereto and incubated at room temperature for 4 hours; • after the incubation was completed, a multimode microplate reader was used to read HTRF excitation: 320 nm, emission: 615 nm, 665 nm.
Using the equation (Sample−Min)/(Max−Min)*100% to convert the raw data into inhibition rate, the IC50 value might be obtained by curve fitting with four parameters (obtained by “log (inhibitor) vs. response—Variable slope” mode in GraphPad Prism). • Max well: Positive control well reading is 1× lysate • Min well: Negative control well reading is 0.5% DMSO cell well cell lysate

The nature of series [2]: Pharmacokinetic evaluation in Balb/c mice (IV and oral). The settings on record: male, mouse, plasma; for Cmax: IV 10 mg/kg and oral 50 mg/kg study, read-out: Peak concentration Cmax; for bioavailability / clearance / half-life / Vd: IV 10 mg/kg; for bioavailability / AUC(0-t): PO 50 mg/kg; for bioavailability: read-out: Bioavailability F; for clearance: read-out: Clearance rate CL; for half-life: read-out: Half life T1/2 (IV) (converted); for Vd: read-out: Volume of distribution at steady state Vdss; for AUC(0-t): read-out: Area under drug-time curve AUC0-last PO. It is filed as in vivo. As to the method:
Balb/c mice (male, Beijing Vital River Laboratory Animal Technology Co., Ltd.)
The pharmacokinetic characteristics of the compound in rodents after intravenous injection and oral administration were tested according to the standard protocol. In the experiment, the candidate compound was formulated into clear solutions, and a single intravenous injection and oral administration were given to mice. The vehicle for intravenous injection and oral administration was a mixed vehicle composed of 5% dimethyl sulfoxide, 5% solutol, and 90% water. In this project, four male Balb/c mice were used, and two mice were administered intravenously at a dose of 10 mg/kg. Plasma samples were collected at 0.083, 0.25, 0.5, 1, 2, 4, 8, and 24 hours after administration. The other two mice were administered orally by gavage at a dose of 50 mg/kg. Plasma samples were collected at 0.25, 0.5, 1, 2, 4, 6, 8, 12, and 24 hours after administration. Blood samples were placed on ice after collection and centrifuged to separate plasma within 1 hour (centrifugation conditions: 6000 g, 3 minutes, 2 to 8° C.). Plasma samples were stored in a −80° C. refrigerator before analysis. The plasma concentration was quantitatively analyzed by LC-MS/MS analysis method, and the pharmacokinetic parameters were calculated, such as peak concentration (Cmax), clearance rate (CL), half-life (T1/2), volume of distribution at steady state (Vdss), area under drug-time curve (AUC0-last), bioavailability (F).

binding of KRAS(G12C) to SOS1, sequence (Q07889 564-1049, stated change not applied): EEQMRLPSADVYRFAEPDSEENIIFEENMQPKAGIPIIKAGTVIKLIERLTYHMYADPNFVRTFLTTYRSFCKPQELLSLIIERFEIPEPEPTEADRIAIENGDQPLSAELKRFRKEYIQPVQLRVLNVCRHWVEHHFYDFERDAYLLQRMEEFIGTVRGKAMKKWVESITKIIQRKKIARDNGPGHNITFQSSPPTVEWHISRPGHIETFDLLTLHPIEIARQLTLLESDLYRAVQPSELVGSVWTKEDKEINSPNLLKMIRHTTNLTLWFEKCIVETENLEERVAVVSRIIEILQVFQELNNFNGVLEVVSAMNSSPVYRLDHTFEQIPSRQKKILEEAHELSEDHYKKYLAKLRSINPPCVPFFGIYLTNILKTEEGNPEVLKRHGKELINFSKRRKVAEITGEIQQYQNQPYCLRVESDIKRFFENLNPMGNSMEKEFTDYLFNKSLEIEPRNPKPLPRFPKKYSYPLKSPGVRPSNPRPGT

Regarding `COc1cc2nc(C)nc(N[C@H](C)c3cc(N)cc(C(F)(F)F)c3)c2cc1OC(=O)N1CCN(C)CC1` [Compound 2], the IC50 in series [1] came to 110 nM; in the series on p-ERK in DLD-1 cells, 122 nM.

In series [1], `COc1cc2nc(C)nc(N[C@H](C)c3cc(N)cc(C(F)(F)F)c3)c2cc1OC(=O)N1CCC2(CCOC2)CC1` [Compound 7] had an IC50 of 92.8 nM.

In series [1], `COc1cc2nc(C)nc(N[C@H](C)c3cc(N)cc(C(F)(F)F)c3)c2cc1OC(=O)N1CCN(C2COC2)CC1` [Compound 9] registered an IC50 of 83.6 nM.

Regarding `COc1cc2nc(C)nc(N[C@H](C)c3cc(N)cc(C(F)(F)F)c3)c2cc1OC(=O)N1CCN2CCCC2C1` (stereo partly drawn) [Compound 10], in the series on p-ERK in DLD-1 cells, the IC50 was found to be 86.2 nM.

`COc1cc2nc(C)nc(N[C@H](C)c3cc(N)cc(C(F)(F)F)c3)c2cc1OC(=O)N1CCC2(CC1)CO[C@H](C)[C@@H]2N` [Compound 11] yielded an IC50 in series [1] of 78.6 nM.

On to `COc1cc2nc(C)nc(N[C@H](C)c3cc(N)cc(C(F)(F)F)c3)c2cc1OC(=O)N1CCCN(C)CC1C` (stereo partly drawn) [Compound 13], for which the IC50 in series [1] is 70.4 nM; in the series with p-ERK in DLD-1 cells, 282 nM.

`COc1cc2nc(C)nc(N[C@H](C)c3cccc(C(F)(F)C(C)(C)O)c3F)c2cc1OC(=O)N1CCN(C2COC2)CC12CC2` [Compound 24] came in with an IC50 in series [1] of 47.9 nM.

`COc1cc2nc(C)nc(N[C@H](C)c3cccc(C(F)F)c3F)c2cc1OC(=O)N1CCNCC12CC2` [Compound 25] gave an IC50 in series [1] of 86.1 nM.

Turning to `COc1cc2nc(C)nc(N[C@H](C)c3cccc(C(F)F)c3F)c2cc1OC(=O)N1CCN(C2COC2)CC12CC2` [Compound 26], the IC50 in series [1] was determined as 65.9 nM; with p-ERK in DLD-1 cells, 283 nM.

As to `COc1cc2nc(C)nc(N[C@H](C)c3cc(N)cc(C(F)(F)F)c3F)c2cc1OC(=O)N1CCN(C)CC1C` (stereo partly drawn) [Compound 27], the IC50 in series [1] came out at 40.6 nM; in the series on p-ERK in DLD-1 cells it was 112 nM.

With `COc1cc2nc(C)nc(N[C@H](C)c3cc(N)cc(C(F)(F)F)c3)c2cc1OC(=O)N1CCN(C)CC1C` (stereo partly drawn) [Hydrochloride of compound 4], the IC50 worked out at 71.1 nM in series [1] and 113 nM with p-ERK in DLD-1 cells.

For the compound `CCN1CCN(C(=O)Oc2cc3c(N[C@H](C)c4cc(N)cc(C(F)(F)F)c4)nc(C)nc3cc2OC)CC1` [Hydrochloride of compound 5], the IC50 worked out at 77.3 nM in series [1] and 219 nM in the series on p-ERK in DLD-1 cells.

Consider `COc1cc2nc(C)nc(N[C@H](C)c3cc(N)cc(C(F)(F)F)c3)c2cc1OC(=O)N1CCNCC1` [Hydrochloride of compound 6], for which, in series [1], the IC50 came out at 87.6 nM.

For `COc1cc2nc(C)nc(N[C@H](C)c3cc(N)cc(C(F)(F)F)c3)c2cc1OC(=O)N1CCC(N(C)C)CC1` [Hydrochloride of compound 8], the IC50 in series [1] worked out at 73.7 nM.

Compound `COc1cc2nc(C)nc(N[C@H](C)c3cccc(C(F)(F)C4CCCO4)c3F)c2cc1OC(=O)N1CCN(C)CC1C` (stereo partly drawn) [Hydrochloride of compound 15] displayed a 50% inhibitory concentration (IC50) in series [1] of 149 nM.

Regarding `COc1cc2nc(C)nc(N[C@H](C)c3cccc(C(F)(F)CO)c3)c2cc1OC(=O)N1CCN(C)CC1C` (stereo partly drawn) [Hydrochloride of compound 16], the figures for the IC50 (in series [1]; with p-ERK in DLD-1 cells) were 59.6 nM and 222 nM, respectively.

Take `COc1cc2nc(C)nc(N[C@H](C)c3cccc(C(F)(F)CO)c3F)c2cc1OC(=O)N1CCN(C)CC1C` (stereo partly drawn) [Hydrochloride of compound 18]: the IC50 in series [1] is 23.4 nM; in the series on p-ERK in DLD-1 cells, 243 nM.

As for `COc1cc2nc(C)nc(N[C@H](C)c3cccc(C(F)F)c3F)c2cc1OC(=O)N1CCN(C)CC1C` (stereo partly drawn) [Hydrochloride of compound 19], the IC50 in series [1] was found to be 105 nM.

`COc1cc2nc(C)nc(N[C@H](C)c3cccc(C(F)(F)C(C)(C)O)c3F)c2cc1OC(=O)N1CCN(C)C[C@@H]1C` [Hydrochloride of compound 28]: in series [2], the Cmax worked out at 4.59 µM, the bioavailability is 98.8%, the clearance was found to be 36.7 mL/min/kg and the half-life is 6.01 h. In series [2], the Vd worked out at 11.5 L/kg and the AUC(0-t) stood at 37.5 µM·h. In series [1], this compound came in with an IC50 of 14.5 nM. Besides, in the series with p-ERK in DLD-1 cells, the IC50 was 91.5 nM.

`COc1cc2nc(C)nc(N[C@H](C)c3cccc(C(F)(F)C(C)(C)O)c3F)c2cc1OC(=O)N1CCN(C)C[C@H]1C` [Hydrochloride of compound 29]: in series [2], the Cmax came out at 10.9 µM, the bioavailability came out at 91.2%, the clearance stood at 18.7 mL/min/kg and the half-life is 3.46 h. In series [2], the Vd amounted to 4.15 L/kg and the AUC(0-t) stood at 74.6 µM·h. The IC50 in series [1] was determined as 14.7 nM. In the series with p-ERK in DLD-1 cells, this compound showed an IC50 of 135 nM.
